Measured values published in patent publication EP1902732A1, “PROPHYLACTIC/THERAPEUTIC AGENT FOR HER2-EXPRESSING CANCER” (Takeda Pharmaceutical Company Limited, priority 2005, dated 2006).

Assays:
MAPK = assay: Western blotting of phosphorylated MAPK in BT-474 cells; format: cell-based, human; settings: Example 2, 4-fold dilution series from 1 µmol/L in 5 steps, 2 hours
Method: (§1) Human HER2-expressing human breast cancer cell line BT-474 (purchased from American Tissue Culture Collection (ATCC)) was seeded into a 24-multiwell plate (BT-474: 1.2 x 10^5 cells/well), and cultured overnight in a carbon dioxide gas incubator (5% CO2, 37°C). A 4-fold dilution series of a mitochondrial respiratory chain complex inhibiting compound (complex I: rotenone, complex III: antimycin, complex V: oligomycin: Wako Pure Chemical Industries) was added starting from a final concentration of 1 µmol/L in 5 steps while continuing culture. After 2 hours, the broth was removed, and the cells were lysed with an SDS sample buffer (200 µL). Western blotting analysis was performed as follows. Specifically, this cell lysate (8 µL) was separated by an SDS-PAGE method (gel concentration: 7.5-15%) (Analytical Biochemistry, No. 166, pp. 368-379, 1987), and transferred to a nitrocellulose membrane (BioRad). Then, an antibody specific to phosphorylated HER2 (Cell signaling technology, Code# 2244), an anti-phosphorylated Akt antibody specific to downstream antiapoptotic signal transducing molecule Akt (Cell signaling technology, Code# 9271) and an anti-phosphorylated MAPK antibody specific to downstream proliferation signal transducing molecule MAPK (Cell signaling technology, Code# 9101) were used to detect the antibody with an ECL system (Amersham) to quantify the amount of phosphorylated protein by an image analysis.
(§2) Human HER2-expressing human cancer cell line BT-474 (purchased from ATCC) was seeded into a 24-multiwell plate (1.2 x 10^5 cells/well) and cultured overnight in a carbon dioxide gas incubator (20% O2, 5% CO2, 37°C). A 3-fold dilution series of metformin that activates AMPK (The Journal of Biological Chemistry, Vol. 279, No. 42, pp. 43940-43951, 2004) was added starting from a final concentration of 15 mmol/L in 5 steps while continuing culture. Two hours later, the broth was removed and the cells were lysed with an SDS sample buffer (200 µL). This cell lysate (8 µL) was separated by an SDS-PAGE method (gel concentration: 7.5-15%) (Analytical Biochemistry, No. 166, pp. 368-379, 1987). Then, western blotting analysis was performed in the same manner as in Example 1 to quantify phosphorylated HER2, phosphorylated Akt and phosphorylated MAPK.

Akt = assay: Western blotting of phosphorylated Akt in BT-474 cells; format: cell-based, human; settings: Example 2, 4-fold dilution series from 1 µmol/L in 5 steps, 2 hours
Method: as §1, §2

phosphorylated AMPK = assay: Western blotting of phosphorylated AMPK in BT-474 cells; format: cell-based, human; settings: Example 6, 1, 0.333, 0.111, 0.033 and 0.011 µmol/L, two hours
Method: (§3) Human HER2-expressing human breast cancer cell line BT-474 (purchased from American Tissue Culture Collection (ATCC)) was seeded into a 24-multiwell plate (BT-474: 1.2 x 10^5 cells/well), and cultured overnight in a carbon dioxide gas incubator (5% CO2, 37°C). Mitochondrial respiratory chain complex 1-inhibiting compound rotenone (Wako Pure Chemical Industries) was added in 5 steps at final concentrations of 1, 0.333, 0.111, 0.033 and 0.011 µmol/L while continuing culture. Two hours later, the broth was removed and the cells were lysed with an SDS sample buffer (200 µL). Then, this cell lysate was used to perform western blotting analysis. Specifically, this cell lysate (8 µL) was separated by an SDS-PAGE method (gel concentration: 7.5-15%) (Analytical Biochemistry, No. 166, pp. 368-379, 1987) and transferred to a nitrocellulose membrane (BioRad). Then, an antibody specific to phosphorylated HER2 (Cell signaling technology, Code# 2244), an AMPK antibody specific to AMPK (Cell signaling technology, Code# 2535) and an anti-phosphorylated AMPK antibody specific to phosphorylated AMPK (Cell signaling technology, Code# 2532) were used to detect the antibody by chemiluminescent detection with an ECL system (Amersham) to quantify an amount of phosphorylated protein with LAS-1000 plus image analysis device (FUJIFILM).

AMPK = assay: Western blotting of AMPK protein amount in BT-474 cells; format: cell-based, human; settings: Example 6, 1, 0.333, 0.111, 0.033 and 0.011 µmol/L, two hours
Method: as §3

EGFR = assay: Western blotting of phosphorylated EGFR in A431 cells; format: cell-based, human; settings: Example 9, 4-fold dilution series from 1 µmol/L in 5 steps, 2 hours
Method: Human EGFR-expressing human epidermal cancer cell line A431 (purchased from American Tissue Culture Collection (ATCC)) was seeded into a 24-multiwell plate (A431:6x10^4 cells/well), and cultured overnight in a carbon dioxide gas incubator (5% CO2, 37°C). A 4-fold dilution series of a mitochondria complex-inhibiting compound (complex I: rotenone, Wako Pure Chemical Industries) was added in 5 steps starting from a final concentration of 1 µmol/L while continuing culture. The broth was removed 2 hours later, and cells were lysed with an SDS sample buffer (200 µL). Western blotting analysis was conducted as follows. Specifically, this cell lysate (8 µL) was separated by an SDS-PAGE method (gel concentration: 7.5-15%) (Analytical Biochemistry, No. 166, pp. 368-379, 1987) and transferred onto a nitrocellulose membrane (BioRad). Subsequently, an antibody specific to phosphorylated EGFR (Cell signaling technology, Code# 2232) was used to detect an antibody with an ECL system (Amersham) to quantify the amount of phosphorylated protein by an image analysis.

[1] = test system: MDA-MB-231 breast cancer cell; assay: Sulphorhodamine-B (SRB) cell proliferation assay; format: cell-based; settings: Homo sapiens, MDA-MB-231, 120 h; HER2-nonexpressing cell; cultured for five days; SRB staining
Method: (§4) BT-474 breast cancer cell (purchased from ATCC) was used as a human HER2-expressing cell and MDA-MB-231 breast cancer cell (purchased from ATCC) was used as a HER2-nonexpressing cell. These cells were seeded into a 96-multiwell plate (BT-474: 3.0 x 10^4 cells/well, MDA-MB-231: 1.5 x 10^4 cells/well), and cultured overnight in a carbon dioxide gas incubator (5% CO2, 37°C). A 4-fold dilution series of a mitochondrial respiratory chain complex-inhibiting compound (complex I: rotenone) was added starting from a final concentration of 10 µmol/L in 10 steps, and further cultured for five days. At the end of culture, the broth containing rotenone was removed, the cells were washed with a phosphoric acid buffer, immobilized with 5% trichloroacetic acid solution, and added with 0.4% (W/V) sulphorhodamine-B (SRB) dye solution (dissolved in 1% acetic acid) for staining the cellular protein. Subsequently, the SRB dye solution was removed from the plate and the plate was washed with a 1% acetic acid solution. Then, 100 µL 10 mM Tris buffer solution was added for extraction and dye dissolution, and absorbance at an absorption wavelength of 550 nm was measured to determine the cellular quantity as a protein amount (Journal of National Cancer Institute. Vol. 82, pp. 1107-1112, 1990). […]

[2] = test system: BT-474 breast cancer cell; assay: Sulphorhodamine-B (SRB) cell proliferation assay; format: cell-based; settings: Homo sapiens, BT-474, 120 h; HER2-expressing cell; cultured for five days; SRB staining
Method: as §4

HER2 = assay: Western blotting of phosphorylated HER2 in BT-474 cells; format: cell-based, human
Method: as §1, §2, §3
Human HER2-expressing human breast cancer cell line BT-474 (purchased from American Tissue Culture Collection (ATCC)) was seeded into a 24-multiwell plate (BT-474: 1.2 x 10^5 cells/well) and cultured overnight in a carbon dioxide gas incubator (5% CO2, 37°C). […]

## C=C(C)[C@H]1Cc2c(ccc3c2O[C@@H]2COc4cc(OC)c(OC)cc4[C@@H]2C3=O)O1 [rotenone]
MAPK
  MAPK phosphorylation: suppressions of Akt and MAPK phosphorylations were also confirmed
Akt
  Akt phosphorylation: suppressions of Akt and MAPK phosphorylations were also confirmed
Phosphorylated AMPK
  amount of AMPK phosphorylation: increased dose-dependently
AMPK
  amount of AMPK protein itself: A quantitative change was not observed
EGFR
  EGFR phosphorylation: No suppression of EGFR phosphorylation was observed
[1]
  IC50: 500 nM
[2]
  IC50: 4 nM
HER2; Example 2, 4-fold dilution series from 1 µmol/L in 5 steps, 2 hours
  HER2 phosphorylation: suppression of HER2 phosphorylation was confirmed
HER2; Example 6, 1, 0.333, 0.111, 0.033 and 0.011 µmol/L, two hours
  HER2 phosphorylation: decreased dose-dependently
